Earlier results on one compound are cited in patent publication US11103891B2, “Pharmaceutical composition” (priority 2011, dated 2021).

For this data set the following is noted: immediate release preparations of levodopa.

Consider `N[C@@H](Cc1ccc(O)c(O)c1)C(=O)O` [levodopa], for which the “levodopa dose that reaches the brain” value is “about 5%”.
